Laboratory results taken from patent US7612065B2, “Inhibitors of c-JUN N-terminal kinases (JNK)” (priority 2007, dated 2009).

What follows are compounds tested against T1, JNK3 (Homo sapiens, UniProt P53779) (assay: JNK inhibition assay: spectrophotometric coupled-enzyme assay with activated JNK3). Conditions: activated JNK3 10 nM, 10 μM ATP, 200 μM EGF receptor peptide, 30° C., competitive inhibition model.
T1 construct: One such construct encodes amino acid residues Ser40-Glu402 of JNK3α1 and is preceded by Met and Gly residues; Met-Gly (initiation methionine plus glycine added for the NcoI site); made in house; host or cells: E. coli BL21 (DE3)
Type: biochemical
From the text: A BLAST search of the EST database using the published JNK3α1 cDNA as a query identified an EST clone (#632588) that contained the entire coding sequence for human JNK3α1. Polymerase chain reactions (PCR) using pfu polymerase (Strategene) were used to introduce restriction sites into the cDNA for cloning into the pET-15B expression vector at the NcoI and BamHI sites. The protein was expressed in E. coli. […] This truncation corresponds to Ser 2 of JNK1 and JNK2 proteins, and is preceded by a methionine (initiation) and a glycine residue. The glycine residue was added in order to introduce an NcoI site for cloning into the expression vector. In addition, systematic C-terminal truncations were performed by PCR to identify a construct that give rise to diffraction-quality crystals.
5 mg of JNK3 was diluted to 0.5 mg/ml in 50 mM HEPES buffer, pH 7.5, containing 100 mM NaCl, 5 mM DTT, 20 mM MgCl2 and 1 mM ATP. GST-MKK7(DD) was added at a molar ratio of 1:2.5 GST-MKK7:JNK3. After incubation for 30 minutes at 25° C., the reaction mixture was concentrated 5-fold by ultrafiltration in a Centriprep-30 (Amicon, Beverly, Mass.), diluted to 10 ml and an additional 1 mM ATP added. This procedure was repeated three times to remove ADP and replenish ATP. The final addition of ATP was 5 mM and the mixture incubated overnight at 4° C.
The activated JNK3/GST-MKK7(DD) reaction mixture was exchanged into 50 mM HEPES buffer, pH 7.5, containing 5 mM DTT and 5% glycerol (w/v) by dialysis or ultrafiltration. The reaction mixture was adjusted to 1.1 M potassium phosphate, pH 7.5, and purified by hydrophobic interaction chromatography (at 25° C.) using a Rainin Hydropore column. […] Activated JNK3 (i.e. doubly phosphorylated JNK3) was stored at −70° C. at 0.25-1 mg/ml.
Compounds were assayed for the inhibition of JNK3 by a spectrophotometric coupled-enzyme assay. In this assay, a fixed concentration of activated JNK3 (10 nM) was incubated with various concentrations of a potential inhibitor dissolved in DMSO for 10 minutes at 30° C. in a buffer containing 0.1 M HEPES buffer, pH 7.5, containing 10 mM MgCl2, 2.5 mM phosphoenolpyruvate, 200 μM NADH, 150 μg/mL pyruvate kinase, 50 μg/mL lactate dehydrogenase, and 200 μM EGF receptor peptide. […] The reaction was initiated by the addition of 10 μM ATP and the assay plate is inserted into the spectrophotometer's assay plate compartment that was maintained at 30° C. The decrease of absorbance at 340 nm was monitored as a function of time. The rate data as a function of inhibitor concentration was fitted to competitive inhibition kinetic model to determine the Ki.

T1 sequence (P53779 40-402): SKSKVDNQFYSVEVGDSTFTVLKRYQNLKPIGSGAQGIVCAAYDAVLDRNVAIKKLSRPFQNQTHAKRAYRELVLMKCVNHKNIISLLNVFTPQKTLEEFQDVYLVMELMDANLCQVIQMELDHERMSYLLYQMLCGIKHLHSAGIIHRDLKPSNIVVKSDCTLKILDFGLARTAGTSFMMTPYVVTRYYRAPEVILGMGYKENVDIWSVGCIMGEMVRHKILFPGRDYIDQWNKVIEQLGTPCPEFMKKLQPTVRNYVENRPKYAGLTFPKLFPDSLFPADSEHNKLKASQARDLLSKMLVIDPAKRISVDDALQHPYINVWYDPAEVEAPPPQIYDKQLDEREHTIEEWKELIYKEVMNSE

| SMILES | Ki [µM] |
| --- | --- |
| COc1ccc(CC(=O)Nc2ccc3c(c2)N(Cc2cc(F)cc4c2OCOC4)C(=O)/C3=N/O)cc1OC [Compound 324] | ≥ 1 |
| O=C1/C(=N\O)c2cc(Cl)ccc2N1Cc1ccccc1F [Compound 51] | ≥ 1 |
| COC(=O)c1cccc2c1/C(=N/O)C(=O)N2Cc1cc(F)cc2c1OCOC2 [Compound 244] | ≥ 1 |
| COc1cc(CNC(=O)c2ccc3c(c2)N(Cc2cc(F)cc4c2OCOC4)C(=O)/C3=N\O)cc(OC)c1 [Compound 230] | ≥ 1 |
| O=C1/C(=N\O)c2ccccc2N1Cc1ccccc1F [Compound 21] | ≥ 1 |
| O=C1/C(=N\O)c2ccccc2N1Cc1ccc(Cl)c(Cl)c1 [Compound 5] | < 1 |
| COc1ccc(-c2nc(CN3C(=O)/C(=N\O)c4cc(C)cc(C)c43)no2)cc1 [Compound 91] | ≥ 1 |
| O=C(Nc1ccc2c(c1)N(Cc1cc(F)cc3c1OCOC3)C(=O)/C2=N\O)C1CCCCC1 [Compound 346] | ≥ 1 |
| N#Cc1ccccc1CN1C(=O)/C(=N\O)c2ccccc21 [Compound 63] | ≥ 1 |
| Cc1cc(C)c2c(c1)/C(=N/O)C(=O)N2Cc1ccccn1 [Compound 110] | ≥ 1 |
| Cc1ccc(CN2C(=O)/C(=N\O)c3cc(Cl)ccc32)cc1 [Compound 48] | ≥ 1 |
| O=C1/C(=N\O)c2cc(Cl)ccc2N1Cc1cc(F)cc2c1OCCO2 [Compound 75] | < 1 |
| O=C(NCc1cc(Cl)ccc1Cl)c1ccc2c(c1)N(Cc1cc(F)cc3c1OCOC3)C(=O)/C2=N\O [Compound 236] | ≥ 1 |
| O=C(Nc1ccc2c(c1)N(Cc1cc(F)cc3c1OCOC3)C(=O)/C2=N\O)c1ccco1 [Compound 226] | < 1 |
| COc1cc(CN2C(=O)/C(=N\O)c3cc(OC(F)(F)F)ccc32)cc(OC)c1 [Compound 107] | ≥ 1 |
| O=C1/C(=N\O)c2ccccc2N1Cc1cccc(F)c1 [Compound 20] | ≥ 1 |
| O=C(Nc1ccc2c(c1)N(Cc1cc(F)cc3c1OCOC3)C(=O)/C2=N\O)c1ccc(Cl)c(Cl)c1 [Compound 253] | ≥ 1 |
| O=C1/C(=N\O)c2c(C#Cc3ccccc3)cccc2N1Cc1cc(F)cc2c1OCOC2 [Compound 246] | ≥ 1 |
| N#CCC(=O)Nc1ccc2c(c1)N(Cc1cc(F)cc3c1OCOC3)C(=O)/C2=N\O [Compound 217] | < 1 |
| Cc1ccc(CN2C(=O)/C(=N\O)c3cc(Br)ccc32)cc1 [Compound 26] | ≥ 1 |
| COC(=O)CCCN1C(=O)/C(=N/O)c2ccc(-c3ccsc3)cc21 [Compound 186] | ≥ 1 |
| Cc1cccc2c1/C(=N/O)C(=O)N2Cc1cc(F)cc2c1OCOC2 [Compound 301] | < 1 |

| SMILES | Ki [µM] |
| --- | --- |
| O=C1/C(=N\O)c2ccccc2N1Cc1c(Cl)cccc1Cl [Compound 2] | < 1 |
| O=C1/C(=N\O)c2cc(F)ccc2N1Cc1csc(-c2ccc(Cl)cc2)n1 [Compound 86] | ≥ 1 |
| Cc1cc(Cl)cc2c1N(Cc1cc(F)cc3c1OCOC3)C(=O)/C2=N\O [Compound 103] | < 1 |
| O=C1/C(=N\O)c2cc(OC(F)(F)F)ccc2N1Cc1cccc([N+](=O)[O-])c1 [Compound 106] | ≥ 1 |
| O=C(Nc1ccc2c(c1)N(Cc1cc(F)cc3c1OCOC3)C(=O)/C2=N\O)c1cccnc1 [Compound 254] | < 1 |
| Cc1cccc(CN2C(=O)/C(=N\O)c3cc(Br)ccc32)c1 [Compound 27] | ≥ 1 |
| CC(C)CNC(=O)c1ccc2c(c1)N(Cc1cc(F)cc3c1OCOC3)C(=O)/C2=N\O [Compound 287] | ≥ 1 |
| O=C1c2ccccc2C(=O)N1CCCN1C(=O)/C(=N\O)c2ccc(-c3ccccc3)cc21 [Compound 161] | ≥ 1 |
| O=C1/C(=N\O)c2c(-c3ccsc3)cccc2N1Cc1cc(F)cc2c1OCOC2 [Compound 205] | ≥ 1 |
| COc1cc(CN2C(=O)/C(=N\O)c3cc(Cl)cc(C)c32)cc(OC)c1 [Compound 102] | < 1 |
| COc1cc(CN2C(=O)/C(=N\O)c3cc(NC(=O)CCc4ccccc4)ccc32)cc(OC)c1 [Compound 131] | ≥ 1 |
| COc1cc(CN2C(=O)/C(=N\O)c3c(Br)cccc32)cc(OC)c1 [Compound 199] | < 1 |
| O=C(Nc1ccc2c(c1)N(Cc1cc(F)cc3c1OCOC3)C(=O)/C2=N\O)c1ccc(F)cc1F [Compound 249] | < 1 |
| O=C1/C(=N\O)c2cc(-c3cccnc3)ccc2N1Cc1cc(F)cc2c1OCOC2 [Compound 281] | ≥ 1 |
| COc1ccc(CN2C(=O)/C(=N\O)c3cc(Cl)cc(C)c32)cc1 [Compound 97] | ≥ 1 |
| COc1cccc(C(=O)Nc2ccc3c(c2)/C(=N/O)C(=O)N3Cc2ccccc2)c1 [Compound 120] | ≥ 1 |
| O=C(Nc1ccc2c(c1)N(Cc1cc(F)cc3c1OCOC3)C(=O)/C2=N\O)c1ccccc1F [Compound 341] | < 1 |
| CCOC(=O)C(=O)Nc1ccc2c(c1)N(Cc1cc(F)cc3c1OCOC3)C(=O)/C2=N\O [Compound 258] | < 1 |
| COC(=O)c1cccc(CN2C(=O)/C(=N/O)c3ccc(-c4ccsc4)cc32)c1 [Compound 185] | ≥ 1 |
| O=C(Nc1ccc2c(c1)N(Cc1cc(F)cc3c1OCOC3)C(=O)/C2=N\O)c1ccccc1 [Compound 247] | < 1 |
| O=C(Nc1ccc2c(c1)N(Cc1cc(F)cc3c1OCOC3)C(=O)/C2=N\O)c1cc2ccccc2o1 [Compound 221] | < 1 |
| COc1cc(CN2C(=O)/C(=N\O)c3cc(NC(=O)c4cccc(OC)c4)ccc32)cc(OC)c1 [Compound 121] | ≥ 1 |

| SMILES | Ki [µM] |
| --- | --- |
| COc1cccc(C(=O)Nc2ccc3c(c2)/C(=N/O)C(=O)N3Cc2cc(F)cc3c2OCOC3)c1 [Compound 122] | ≥ 1 |
| Nc1cccc(-c2ccc3c(c2)/C(=N/O)C(=O)N3Cc2cc(F)cc3c2OCOC3)c1 [Compound 280] | ≥ 1 |
| COc1cc(CN2C(=O)/C(=N\O)c3ccc(C)cc32)cc(OC)c1 [Compound 150] | < 1 |
| COC(=O)c1ccc2c(c1)N(Cc1cc(C)cc3c1OCOC3)C(=O)/C2=N\O [Compound 215] | < 1 |
| COc1cccc(-c2ccc3c(c2)N(Cc2cc(=O)oc4cc(OC)ccc24)C(=O)/C3=N\O)c1 [Compound 175] | ≥ 1 |
| O=C(c1ccc(F)cc1)c1ccc2c(c1)/C(=N/O)C(=O)N2Cc1cc(F)cc2c1OCOC2 [Compound 328] | ≥ 1 |
| O=C1/C(=N\O)c2cc(F)ccc2N1Cc1cc(F)cc2c1OCOC2 [Compound 85] | < 1 |
| Cc1ccccc1CNC(=O)c1ccc2c(c1)N(Cc1cc(F)cc3c1OCOC3)C(=O)/C2=N\O [Compound 233] | ≥ 1 |
| O=C(c1ccccc1)c1ccc2c(c1)/C(=N/O)C(=O)N2Cc1cc(F)cc2c1OCOC2 [Compound 302] | ≥ 1 |
| COc1ccc(-c2ccc3c(c2)N(Cc2cc(F)cc4c2OCOC4)C(=O)/C3=N\O)cc1OC [Compound 332] | < 1 |
| O=C1/C(=N\O)c2cc(Cl)ccc2N1Cc1csc(-c2ccc(Cl)cc2)n1 [Compound 77] | < 1 |
| O=C1/C(=N\O)c2cc(F)ccc2N1Cc1cccc(Oc2ccccc2)c1 [Compound 82] | ≥ 1 |
| O=C(NCCN1CCOCC1)c1ccc2c(c1)N(Cc1cc(F)cc3c1OCOC3)C(=O)/C2=N\O [Compound 240] | ≥ 1 |
| O=C1/C(=N\O)c2c(F)cc(F)cc2N1Cc1cc(F)cc2c1OCOC2 [Compound 286] | < 1 |
| COc1cc(CN2C(=O)/C(=N\O)c3ccc([N+](=O)[O-])cc32)cc(OC)c1 [Compound 198] | ≥ 1 |
| Cc1ccc(CN2C(=O)/C(=N\O)c3cc(F)ccc32)cc1 [Compound 56] | ≥ 1 |
| O=C1/C(=N\O)c2ccccc2N1Cc1ccc(Cl)cc1Cl [Compound 7] | < 1 |
| O=C1/C(=N\O)c2cc(Cl)ccc2N1Cc1cccc(F)c1 [Compound 50] | ≥ 1 |
| Cc1cc(Cl)cc2c1N(Cc1ccccc1C#N)C(=O)/C2=N\O [Compound 99] | ≥ 1 |
| O=C1/C(=N\O)c2cc(OC(F)(F)F)ccc2N1Cc1cc(F)cc2c1OCOC2 [Compound 108] | ≥ 1 |
| COc1ccc(CN2C(=O)/C(=N\O)c3cc(OC(F)(F)F)ccc32)cc1 [Compound 105] | ≥ 1 |
| Nc1cccc(-c2ccc3c(c2)N(Cc2cc(F)cc4c2OCOC4)C(=O)/C3=N\O)c1 [Compound 327] | < 1 |
